The source of these data is US10874743B2, “IRAK degraders and uses thereof” (Kymera Therapeutics, Inc., priority 2017, dated 2020).

Experiment [1] has as its target T1, IRAK4 (Homo sapiens, UniProt Q9NWZ3).
T1 sequence (Q9NWZ3 1-460): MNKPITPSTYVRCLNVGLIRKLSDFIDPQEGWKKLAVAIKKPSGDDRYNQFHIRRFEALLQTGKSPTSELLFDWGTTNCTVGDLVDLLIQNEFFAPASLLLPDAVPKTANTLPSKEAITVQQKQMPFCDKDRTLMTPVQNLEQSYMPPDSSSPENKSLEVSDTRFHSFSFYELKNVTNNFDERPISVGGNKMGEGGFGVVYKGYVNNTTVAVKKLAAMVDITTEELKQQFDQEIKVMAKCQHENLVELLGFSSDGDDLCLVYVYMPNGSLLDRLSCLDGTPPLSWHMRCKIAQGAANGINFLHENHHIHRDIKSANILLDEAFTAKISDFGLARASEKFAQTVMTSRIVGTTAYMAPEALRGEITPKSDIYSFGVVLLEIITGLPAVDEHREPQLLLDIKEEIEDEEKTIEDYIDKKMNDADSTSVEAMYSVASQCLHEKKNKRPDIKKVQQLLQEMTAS
The experiment in a line: OCI-LY-10 MSD assay for IRAK4 DC50. It counts as cell-based. The arrangement: endogenous in cells; host or cells: OCI-LY10. The settings on record: OCI-LY10 cells, 4 hr incubation, concentration required to degrade 50% of protein. On the procedure: A MSD assay was run to determine the concentration of compound required to degrade 50% of protein (DC50).
Day 1 • Compounds were reconstituted to 10 mM in stock solutions. The stock solutions were diluted to 5 mM and 45 μL of each dilution was transferred to a 384 pp-plate. A 3 fold, 8-point serial dilution was performed by transferring 15 μL of compound into 30 μL DMSO using Janus. • 20 nL of each compounds were added into each well of a 96-well plate (Corning3799). • OCI-Ly10 cells were seeded into the 96-well plate at 3.0*10e^5 cells/100 μL/well. • The cell plate was shaken at 720 rpm for 5 min and incubated for 4 hr. • The 100 μL of cells were transferred into the 96-PCR plate and spun down at high speed for 5 mins. • The supernatant was discarded and 100 μL of RIPA lysis buffer with proteinase inhibitors was added per well. The plate was then sealed and shaken at 600 rpm and 4° C. for about 20 min. • The plate was then spun down at high speed (about 3200 g) for 30 min and then frozen in a −80° C. fridge. • A bare MSD plate (L15XA-3) was coated with 2 μg/mL of capture antibody (mouse Anti-IRAK4 antibody [2H9], ab119942) in PBS to 40 μL/well and incubated overnight at 4° C.
Day 2 • The MSD coated plate was washed 3× (150 μL/well) with 1×TBST (CST #9997S). • The MSD plate was then blocked with 150 μL of blocking buffer [3% Blocker A (MSD, R93BA-4) in TBST]/well and shaken for 1 hr at R^† and 600 rpm. • The MSD plate was washed 3× (150 μL/well) with 1×TBST. The sample RIPA lysates were then added to the MSD plate (50 μL/well) and shaken for 1 hr at R^† and 600 rpm. • The MSD plate was washed 3× (150 μL/well) with 1×TBST and the primary detection antibody (Rabbit Anti-IRAK4 antibody [Y279], ab32511) was added to a final concentration of 1 μg/ml with 25 μL/well. The plate was then shaken for 1 hr at RT and 600 rpm. • The MSD plate was washed 3× (150 μL/well) with 1×TBST and the secondary detection antibody, SULFO-TAG anti-species antibody (Anti Rabbit Antibody (R32AB-5) MSD, R32AB-1) was added to a volume of 25 μL/well at a final concentration of 1 jag/ml. The plate was then shaken for 1 hr at RT and 600 rpm. • The MSD plate was then washed 3× (150 μL/well) with 1×TBST. • lx MSD reading buffer was then added (150 μL/well) and the plate was diluted with 4× water. (MSD, R92TC-2) • The MSD instrument was then read.
Data Analysis • The remaining activity was calculated following the formula below:
Calculate • The DC50 was calculated by fitting the Curve using Xlfit (v5.3.1.3), equation 201: Y=Bottom+(Top−Bottom)/(1+10^((Log IC50−X)*HillSlope))
OCI-LY-10 DC50 results. The letter codes for IRAK4 DC50 indicate the concentration of compound required to degrade 50% of protein: A (<0.05 μM), B (0.05-0.1 μM), C (0.1-0.5 μM), D (0.5-1.0 μM), and E (>1.0 μM).

Experiment [2] has as its target T1, IRAK4. The experiment in a line: OCI-LY-10 degradation assay (western blot, % IRAK4 degraded after 4 hours). The class given is cell-based. The arrangement: endogenous in cells; host or cells: OCI-LY10. Particulars: OCI-LY10 cells; for OCI-LY10 % IRAK4 Degradation: IRAK4 degraded after 4 hours, western blot; for OCI-LY10 % IRAK4 Degradation (0.01 uM) / OCI-LY10 % IRAK4 Degradation (0.1 uM) / OCI-LY10 % IRAK4 Degradation (1 uM): 4 hours; for OCI-LY10 % IRAK4 Degradation (0.01 uM): 0.01 uM compound; for OCI-LY10 % IRAK4 Degradation (0.1 uM): 0.1 uM compound; for OCI-LY10 % IRAK4 Degradation (1 uM): 1 uM compound. In outline: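 IRAK4 loss after 4 h at 37° C was scored A (>50%), B (>20-50%) or C (<20%) from infrared western blots of RIPA lysates, 20-25 μg protein per lane. Compound was applied at 0.003-10 μM final to OCI-LY10 cells cultured in RPMI-1640 with 20% FBS and 55 μM 2-ME.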

Some results are limits rather than exact numbers.

For the compound `Cn1cc(NC(=O)c2coc(-c3ccnc(NCC(F)(F)F)c3)n2)c(C(=O)NCCCOCCCOCCCNc2cccc3c2C(=O)N(C2CCC(=O)NC2=O)C3=O)n1` (stereo not drawn) [I-294], the DC50 (as a rule, the midpoint of the concentration-degradation curve) at IRAK4 [1] is greater than 1000 nM. On IRAK4 [1], `O=C1CCC(N2C(=O)c3ccc(NC4CCN(CCOCCNC(=O)c5ccc(-n6cc(NC(=O)c7coc(-c8ccnc(NCC9CC9)c8)n7)c(C(F)F)n6)cc5)CC4)cc3C2=O)C(=O)N1` (stereo not drawn) [I-271] registered a 50% degradation concentration (DC50) of 100 to 500 nM. `COCC(=O)N[C@H](C(=O)N1Cc2cc(OCCOCCOCCOCCOCCOCCNCc3ccc(-n4cc(NC(=O)c5coc(-c6ccnc(NCC7CC7)c6)n5)c(C(F)F)n4)cc3)ccc2CC1C(=O)N[C@@H]1CCCc2ccccc21)C(C)(C)C` (stereo partly drawn) [I-416]: the DC50 at IRAK4 [1] is greater than 1000 nM. Take `CC(NCCOCCOCCCc1cccc2c1n(C)c(=O)n2C1CCC(=O)NC1=O)c1ccc(-n2cc(NC(=O)c3coc(-c4ccnc(NCC5CC5)c4)n3)c(C(F)F)n2)cc1` (stereo not drawn) [I-401]: at IRAK4 [1], the DC50 is less than 50 nM. Turning to `COCC(=O)N[C@H](C(=O)N1Cc2cc(OCCOCCOCCOCCOCCNC(=O)c3ccc(-n4cc(NC(=O)c5coc(-c6ccnc(NCC7CC7)c6)n5)c(C(F)F)n4)cc3)ccc2CC1C(=O)N[C@@H]1CCCc2ccccc21)C(C)(C)C` (stereo partly drawn) [I-296], the DC50 on IRAK4 [1] is greater than 1000 nM. The same measure, in the same setting: for `CN[C@@H](C)C(=O)N[C@H](C(=O)N1Cc2cc(OCCOCCOCCOCCNCc3ccc(-n4cc(NC(=O)c5coc(-c6ccnc(NCC7CC7)c6)n5)c(C(F)F)n4)cc3)ccc2C[C@H]1C(=O)N[C@@H]1CCCc2ccccc21)C(C)(C)C` [I-681, 2-[2-(Cyclopropylmethylamino)-4-pyridyl]-N-[3-(difluoromethyl)-1-[4-[[2-[2-[2-[2-[[(3S)-2-[(2S)-3,3-dimethyl-2-[[(2S)-2-(methylamino)propanoyl]amino]butanoyl]-3-[[(1R)-tetralin-1-yl]carbamoyl]-3,4-dihydro-1H-isoquinolin-7-yl]oxy]ethoxy]ethoxy]ethoxy]ethylamino]methyl]phenyl]pyrazol-4-yl]oxazole-4-carboxamide] the value was 500 to 1000 nM. Regarding `Cn1c(=O)n(C2CCC(=O)NC2=O)c2cccc(CCCOCCOCCNC3(c4ccc(-n5cc(NC(=O)c6coc(-c7ccnc(NCC8CC8)c7)n6)c(C(F)F)n5)cc4)CC3)c21` (stereo not drawn) [I-403], the DC50 at IRAK4 [1] lay within 50 to 100 nM. On IRAK4 [1], `Cn1c(=O)n(C2CCC(=O)NC2=O)c2ccc(CCCCOCCCCNCc3ccc(-n4cc(NC(=O)c5cnn6ccc(N7CCNCC7)nc56)c(C(F)F)n4)cc3)cc21` (stereo not drawn) [I-441, N-[3-(difluoromethyl)-1-[4-[[4-[4-[1-(2,6-dioxo-3-piperidyl)-3-methyl-2-oxo-benzimidazol-5-yl]butoxy]butylamino]methyl]phenyl]pyrazol-4-yl]-5-piperazin-1-yl-pyrazolo[1,5-a]pyrimidine-3-carboxamide] returned a DC50 greater than 1000 nM. On the same count and under the same terms, in the case of `Cn1c(=O)n(C2CCC(=O)NC2=O)c2cccc(CCCOCCOCCOCCOCCN[C@H]3CC[C@H](Nc4ncnc5[nH]cc(C6CCOCC6)c45)CC3)c21` (stereo partly drawn) [I-442, 3-[3-Methyl-2-oxo-4-[3-[2-[2-[2-[2-[[4-[(5-tetrahydropyran-4-yl-7H-pyrrolo[2,3-d]pyrimidin-4-yl)amino]cyclohexyl]amino]ethoxy]ethoxy]ethoxy]ethoxy]propyl]benzimidazol-1-yl]piperidine-2,6-dione] it was greater than 1000 nM; in that of `Cn1c(=O)n(C2CCC(=O)NC2=O)c2cccc(CCCOCCCNCc3ccc(-n4cc(NC(=O)c5coc(-c6ccnc(NCC7CC7)c6)n5)c(C(F)F)n4)cc3)c21` (stereo not drawn) [I-404], less than 50 nM. `O=C1CCC(N2C(=O)c3cccc(N4CCN(CCOCCOCCNC(=O)c5ccc(-n6cc(NC(=O)c7coc(-c8ccnc(NCC9CC9)c8)n7)c(C(F)F)n6)cc5)CC4)c3C2=O)C(=O)N1` (stereo not drawn) [I-273] displayed a DC50 on IRAK4 [1] of 50 to 100 nM. As to `NC(=O)c1nn(-c2ccc(C(=O)NCCOCCOCCOCCOCCCc3ccc4c(c3)C(=O)N(C3CCC(=O)NC3=O)C4=O)cc2)cc1NC(=O)c1coc(-c2ccnc(NCC(F)(F)F)c2)n1` (stereo not drawn) [I-148], the “OCI-LY10 % IRAK4 Degradation” value at IRAK4 [2] is reported as “B (>20-50% degradation)”. Regarding `NC(=O)c1nn(-c2ccc(C(=O)NCCCCCNCCNc3cccc4c3C(=O)N(C3CCCNC3=O)C4=O)cc2)cc1NC(=O)c1coc(-c2ccnc(NCC(F)(F)F)c2)n1` (stereo not drawn) [I-333], on IRAK4 [2], the “OCI-LY10 % IRAK4 Degradation (0.01 uM)” value was “C (<20% degradation)”, the “OCI-LY10 % IRAK4 Degradation (0.1 uM)” value is listed as “C (<20% degradation)” and the “OCI-LY10 % IRAK4 Degradation (1 uM)” value was “C (<20% degradation)”. On to `NC(=O)c1nn(-c2ccc(C(=O)NCCOCCOCCCc3cccc4c3C(=O)N(C3CCC(=O)NC3=O)C4=O)cc2)cc1NC(=O)c1coc(-c2ccnc(NCC(F)(F)F)c2)n1` (stereo not drawn) [I-233], for which, at IRAK4 [2], the “OCI-LY10 % IRAK4 Degradation (0.01 uM)” value is on record as “C (<20% degradation)”, the “OCI-LY10 % IRAK4 Degradation (0.1 uM)” value is “A (>50% degradation)” and the “OCI-LY10 % IRAK4 Degradation (1 uM)” value is listed as “A (>50% degradation)”. For `CN(CCCc1cccc2c1C(=O)N(C1CCC(=O)NC1=O)C2=O)Cc1ccc(-n2cc(NC(=O)c3coc(-c4ccnc(NCC5CC5)c4)n3)c(C(F)F)n2)cc1` (stereo not drawn) [I-355], at IRAK4 [2], the “OCI-LY10 % IRAK4 Degradation (0.01 uM)” value is on record as “B (>20-50% degradation)”, the “OCI-LY10 % IRAK4 Degradation (0.1 uM)” value is reported as “B (>20-50% degradation)” and the “OCI-LY10 % IRAK4 Degradation (1 uM)” value is listed as “C (<20% degradation)”. Regarding `Cc1ncsc1-c1ccc(CNC(=O)[C@@H]2C[C@@H](O)CN2C(=O)[C@@H](NC(=O)COCCOCCOCCNC(=O)c2ccc(-n3cc(NC(=O)c4coc(-c5ccnc(NCC(F)(F)F)c5)n4)c(C(N)=O)n3)cc2)C(C)(C)C)cc1` [I-115], the “OCI-LY10 % IRAK4 Degradation” value at IRAK4 [2] was “B (>20-50% degradation)”.

On to `NC(=O)c1nn(C2CCN(CCOCCOCCOCCNc3cccc4c3C(=O)N(C3CCC(=O)NC3=O)C4=O)CC2)cc1NC(=O)c1coc(-c2ccnc(NCC(F)(F)F)c2)n1` (stereo not drawn) [I-170, N-[3-carbamoyl-1-[1-[2-[2-[2-[2-[[2-(2,6-dioxo-3-piperidyl)-1,3-dioxo-isoindolin-4-yl]amino]ethoxy]ethoxy]ethoxy]ethyl]-4-piperidyl]pyrazol-4-yl]-2-[2-(2,2,2-trifluoroethylamino)-4-pyridyl]oxazole-4-carboxamide], for which the “OCI-LY10 % IRAK4 Degradation” value on IRAK4 [2] is “B (>20-50% degradation)”. For `CN(CCOCCOCCCc1cccc2c1C(=O)N(C1CCC(=O)NC1=O)C2=O)C(=O)c1ccc(-n2cc(NC(=O)c3coc(-c4ccncc4)n3)c(C(N)=O)n2)cc1` (stereo not drawn) [I-226], on IRAK4 [2], the “OCI-LY10 % IRAK4 Degradation (0.01 uM)” value is listed as “B (>20-50% degradation)”, the “OCI-LY10 % IRAK4 Degradation (0.1 uM)” value is “A (>50% degradation)” and the “OCI-LY10 % IRAK4 Degradation (1 uM)” value is “A (>50% degradation)”. Take `CC(C)(OCCOCCOCCOCCOCCNc1cccc2c1C(=O)N(C1CCC(=O)NC1=O)C2=O)C(F)CNC(=O)c1cnc(-n2ncc3cc(C#N)cnc32)cc1NC1CC1` (stereo not drawn) [I-60]: the “OCI-LY10 % IRAK4 Degradation” value at IRAK4 [2] is on record as “C (<20% degradation)”.
